Blank lines part the entries; values can stand above or below the molecule they belong to.
Legend:
Assay type in all cases: cell-based
Z138 cells = assay: MTT cell proliferation assay, Z138 cells; conditions: Homo sapiens, Z-138, incubation approximately 64-72 hours
Description: (§1) The MTT cell proliferation assay was used to study the cytotoxic properties of the compounds. The assay was performed according to the method described by Roche Molecular Biochemicals, with minor modifications. The assay is based on the cleavage of the tetrazolium salt, MTT, in the presence of an electron-coupling reagent. The water-insoluble formazan salt produced must be solubilized in an additional step. Cells grown in a 96-well tissue culture plate were incubated with the MTT solution for approximately 4 hours. After this incubation period, a water-insoluble formazan dye formed. After solubilization, the formazan dye was quantitated using a scanning multi-well spectrophotometer (ELISA reader). […] The cells were seeded at 5,000-10,000 cells in each well of 96-well plate in 100 μL of fresh culture medium and were allowed to attach overnight. The stock solutions of the compounds were diluted in 100 μL cell culture medium to obtain eight concentrations of each test compound, ranging from 1 nM to 30 μM. […] All optical densities were measured at 490 nm using a Vmax Kinetic Microplate Reader (Molecular Devices). In most cases, the assay was performed in duplicate and the results were presented as a mean percent inhibition to the negative control±SE. The following formula was used to calculate the percent of inhibition. Inhibition (%)=(1−(ODo/OD))×100.
(§2) The compounds were tested against MS751, Z138 and 3T3 cells. The MS751 cell line is derived from a metastasis to lymph node of human cervix from a patient diagnosed with squameous cell carcinoma of the cervix. The […] cell line is a mature B-cell acute lymphoblastic leukemia cell line derived from a patient with chronic lymphocytic leukemia. 3T3 cells are standard fibroblast cells; they were originally isolated from Swiss mouse embryo tissue.

MS751 cells = assay: MTT cell proliferation assay, MS751 cells; conditions: Homo sapiens, incubation approximately 64-72 hours
Description: as §1, §2

3T3 cells = assay: MTT cell proliferation assay, 3T3 cells; conditions: Mus musculus, NIH3T3; 3T3 fibroblast cells; incubation approximately 64-72 hours
Description: as §1, §2

NHDF cells = assay: MTT cell proliferation assay, NHDF cells; conditions: normal human dermal fibroblast cells
Description: as §1, with “(%)=(1−(ODo/OD))×100. […]” for “(%)=(1−(ODo/OD))×100.”

Hep G2 cells = assay: MTT cell proliferation assay, Hep G2 cells; conditions: HepG2; human hepatocellular carcinoma cells
Description: as §1, with “(%)=(1−(ODo/OD))×100. […]” for “(%)=(1−(ODo/OD))×100.”

HEP 3B cells = assay: MTT cell proliferation assay, HEP 3B cells; conditions: Hep3B; human hepatocellular carcinoma cells
Description: as §1, with “(%)=(1−(ODo/OD))×100. […]” for “(%)=(1−(ODo/OD))×100.”

UCH-2 cell line = assay: MTT cell proliferation assay, UCH-2 cells; conditions: UCH2; chordoma cell line
Description: as §1, with “(%)=(1−(ODo/OD))×100. […]” for “(%)=(1−(ODo/OD))×100.”

SNU-182 cell line = assay: MTT cell proliferation assay, SNU-182 cells; conditions: human hepatoma cell line
Description: as §1, with “(%)=(1−(ODo/OD))×100. […]” for “(%)=(1−(ODo/OD))×100.”

L3.6pl cell line = assay: MTT cell proliferation assay, L3.6pl cells; conditions: Homo sapiens, pancreatic cancer cell line
Description: as §1, with “(%)=(1−(ODo/OD))×100. […]” for “(%)=(1−(ODo/OD))×100.”

IC50 (SNU-182 cell line): < 100 nM
Structure (SMILES): Nc1ccc(/C=C/C(=O)NCCOc2ccc(-c3ccc(C(=O)N4CC(F)(F)C4)cc3)cc2Cl)cn1 [Compound 318, (E)-3-(6-aminopyridin-3-yl)-N-(2-(3-chloro-4′-(3,3-difluoroazetidine-1-carbonyl)biphenyl-4-yloxy)ethyl)acrylamide]
IC50 (Z138 cells): < 100 nM | IC50 (MS751 cells): < 100 nM | IC50 (3T3 cells): 100 to 5000 nM | IC50 (NHDF cells): < 100 nM | IC50 (Hep G2 cells): < 100 nM | IC50 (HEP 3B cells): < 100 nM | IC50 (UCH-2 cell line): > 30000 nM | IC50 (L3.6pl cell line): < 100 nM

Structure (SMILES): CN(C)C(=O)c1ccc(-c2ccc(OCCNC(=O)/C=C/c3ccc(N)nc3)c(Cl)c2)cc1 [Compound 325, (E)-4′-(2-(3-(6-aminopyridin-3-yl)acrylamido)ethoxy)-3′-chloro-N,N-dimethylbiphenyl-4-carboxamide]
IC50 (Z138 cells): 100 to 5000 nM | IC50 (MS751 cells): 100 to 5000 nM | IC50 (3T3 cells): > 10000 nM

Source: patent publication US9994558B2, “Multicyclic compounds and methods of using same” (Karyopharm Therapeutics Inc., priority 2013, dated 2018)
